Source: patent publication US20240050434A1, “HORMAD1 THERAPEUTICS” (Royal Cancer Hospital, priority 2020, published 2024)
Entries after “also recorded” stand apart in the source; their conditions may differ.

Key:
[1] = tested on: RPE1 cells expressing a doxycycline-inducible HORMAD1 construct; assay: Clonogenic survival assay (SRB) in RPE1 cells with doxycycline-inducible HORMAD1; format: cell-based; details: for clonogenic survival / sensitivity of HORMAD1 expressing versus HORMAD1-negative RPE1 cells: increasing doses, 7-14 days, normalised to vehicle
Procedure: Cell confluence was analysed every 6 hours for 10 days, using incucyte software. Data are from 3 biological replicates and analysed using a two-way ANOVA. […] RPE1 cells expressing a doxycycline-inducible HORMAD1 expression construct were exposed to doxycycline or vehicle (H2O) and were exposed to 20 nM of the Aurora B inhibitor, AZD1152-HQPA. Cell confluence was analysed every 6 hours for 10 days, using incucyte software. Data are from 3 biological replicates and analysed using a two-way ANOVA. […] 7-10 days post drugging, cells were fixed, stained with SRB, and colonies were counted using Cell Profiler. […] 10 days post drugging, cells were fixed, stained with SRB, and colonies were counted using Cell Profiler. […] RPE1 cells expressing a doxycycline-inducible HORMAD1 expression construct were exposed to doxycycline or vehicle (H2O) and to increasing doses of the Aurora B inhibitor, AZD1152-HQPA. 7-10 days post drugging, cells were fixed, stained with SRB, and colonies were counted using Cell Profiler. […] SUM159 cells expressing a doxycycline-inducible HORMAD1 expression construct were exposed to doxycycline or vehicle (H2O) and to increasing doses of the Aurora B inhibitor, AZD1152-HQPA. 10 days post drugging, cells were fixed, stained with SRB, and colonies were counted using Cell Profiler.
RPE1 cells were reverse transfected with BUB1 or control siRNA particles for 3 days. Cell lysates were collected, and analysed by western blotting using anti-BUB1 and anti-β-ACTIN antibodies. […] RPE1 cells expressing a doxycycline-inducible HORMAD1 expression construct were exposed to doxycycline or vehicle, and were reverse transfected with BUB1 or control siRNA particles. 5 days post transfection, cellular viability was estimated using cell titer glo reagent and surviving fractions were calculated relative to DMSO treated cells. […] Statistical significance estimated using a one-way ANOVA with Sidak's correction. C. Western blot illustrating expression of HORMAD1 in wild-type RPE1 cells and RPE1 cells depleted of BUB1 using CRISPR. WT and BUB1 depleted RPE1 cells expressing a doxycycline-inducible HORMAD1 expression construct, were exposed to doxycycline or vehicle for 3 days. Cell lysates were collected, and analysed by SDS-PAGE and western blotting using anti-HORMAD1, anti-H3 and anti-BUB1 antibodies. […] WT and BUB1 depleted RPE1 cells expressing a doxycycline-inducible HORMAD1 expression construct were exposed to doxycycline or vehicle. 7-10 days post doxycycline induction, cells were fixed, stained with SRB, and cellular viability was estimated using SRB absorbance readings. […] Statistical significance estimated using a one-way ANOVA with Sidak's correction. […] RPE1 expressing a doxycycline-inducible HORMAD1 expression construct, were exposed to doxycycline or vehicle. […] Cells were fixed, stained with SRB, and cellular viability was estimated using SRB absorbance readings. […] Cells were imaged every 4 hours, and confluence was continually measured using incucyte software. Growth curves were plotted, based on confluence. Data represent 3 biological replicas. […] Patient-derived organoids models were grown in culture and cell lysates collected and analysed using SDS-PAGE and western blotting using anti-HORMAD1 and anti-β-ACTIN antibodies. […] Cellular viability was estimated using cell titer glo reagent and surviving fractions were calculated relative to DMSO treated cells. […] Left, dose response curves for each organoid.

[2] = tested on: HORMAD1-positive and HORMAD1-negative triple negative breast cancer patient-derived organoids; assay: Patient-derived TNBC organoids, viability by cell titre glo; format: cell-based, human; details: 14 days
From the text: RPE1 cells were reverse transfected with BUB1 or control siRNA particles for 3 days. Cell lysates were collected, and analysed by western blotting using anti-BUB1 and anti-β-ACTIN antibodies. B. Graph indicating reduced cellular survival in HORMAD1 expressing RPE1 cells depleted of BUB1 using siRNA. RPE1 cells expressing a doxycycline-inducible HORMAD1 expression construct were exposed to doxycycline or vehicle, and were reverse transfected with BUB1 or control siRNA particles. 5 days post transfection, cellular viability was estimated using cell titer glo reagent and surviving fractions were calculated relative to DMSO treated cells. […] Statistical significance estimated using a one-way ANOVA with Sidak's correction. C. […] 7-10 days post doxycycline induction, cells were fixed, stained with SRB, and cellular viability was estimated using SRB absorbance readings. […] Cells were fixed, stained with SRB, and cellular viability was estimated using SRB absorbance readings. […] Cells were imaged every 4 hours, and confluence was continually measured using incucyte software. […] Cellular viability was estimated using cell titer glo reagent and surviving fractions were calculated relative to DMSO treated cells. […]
A further experiment was conducted to test the efficacy of BUB1 inhibitors to selectively kill HORMAD1-positive human tumours. […] Surviving fractions were calculated (normalised to vehicle treated cells). […]

SMILES	clonogenic survival / sensitivity of HORMAD1 expressing versus HORMAD1-negative RPE1 cells [1]	growth inhibition of HORMAD1 expressing versus HORMAD1-negative patient-derived organoids (AURORA B inhibitor) ([2]; BTBC673PO versus WHIM21XO, BXO88XO, BXO78XO)	reduction of clonogenic capacity of RPE1 cells in presence of HORMAD1 expression compared to RPE1 cells not expressing HORMAD1 ([1]; 10 days post drugging)	growth inhibition of HORMAD1-expressing versus HORMAD1-negative patient-derived organoids (BUB1 inhibitor) ([2]; 3 HORMAD1-positive and 5 HORMAD1-negative models)
CCN(CCO)CCCOc1ccc2c(Nc3cc(CC(=O)Nc4cccc(F)c4)[nH]n3)ncnc2c1 [AZD1152-HQPA]	more effectively inhibited; also recorded: reduced clonogenic survival; also recorded: increased Aurora B inhibitor sensitivity	growth inhibition was more effective	–	–
COc1cnccc1Nc1nc(-c2nn(Cc3c(F)cc(OCCO)cc3F)c3ccccc23)ncc1OC [BAY-1816032]	increased cellular sensitivity	–	60%	more effectively inhibited; also recorded: increased BUB1 inhibitor sensitivity
